In patent US9956293B2, “Targeted therapeutics” (Madrigal Pharmaceuticals, Inc., priority 2014, dated 2018):

system: HER2; assay: HER2 degradation assay with BT-474 cell line (Example 12, FACS); assay type: cell-based; conditions: Homo sapiens; BT-474 cells
Text: HER2 Degradation Assay with BT-474 Cell Line
HER2 has emerged as a key target for anticancer drugs due to its intrinsic involvement in the phosphatidylinositol-3-kinase-Akt/protein kinase B (PI3K-Akt) and the mitogen-activated protein kinase (MAPK) pathways, both of which suppress apoptosis and promote tumor cell survival, gene transcription, angiogenesis, cellular proliferation, migration, mitosis, and differentiation. The degradation of HER2 is a measure of efficacy of anticancer therapeutics that target Hsp90. Accordingly, the SDC-TRAP molecules of the invention that comprise a binding moiety that binds Hsp90 were tested in the following HER2 degradation assay.
BT-474 cells (human breast cancer cell line ATCC HTB-20) were obtained from ATCC and seeded into 12-well tissue culture plates at 0.2×10^6/1.8 mL/well. […] Each test compound was titrated in 4-fold dilutions from 5 μM to 78 nM with DMSO and 200 μL of the titration was added to each well of the cell plate. The DMSO final concentration was 0.2%. Cells were incubated overnight at 37° C. in 5% CO2.
Media was decanted from the plate, cells were washed 1× in PBS. 400 μL trypsin (EDTA) per well was added, and the cells were incubated for 2 to 3 minutes. Cells were collected into FACS tubes containing 1 ml culture medium to neutralize the trypsin and were centrifuged for 5 minutes at 1200 rpm. Supernatant was decanted and the cells were resuspended in 5 μL FITC (anti HER2/nu)/200 μL staining buffer (1×PBS+1% FBS+0.05% Sodium Azide)/tube. Controls were […] IgG isotype control and staining buffer only. Tubes were incubated for 30 minutes in the dark at room temperature. 1 mL staining buffer was added to each tube and the tubes were centrifuged for 6 minutes at 1200 rpm. The supernatant was decanted and 300 μL staining buffer was added to each tube, which was store at 4° C. for FACS (cytometer) analysis. The cytometer readout was normalized and the potency of each compound is evaluated with IC50 calculated with XLfit™ software.

| SMILES | IC50 |
| --- | --- |
| CC(C)c1cc(-c2nnc(O)n2-c2ccc(CC(=O)N(C)CCCOC(=O)Nc3cccc4c3CN(C3CCC(=O)NC3=O)C4=O)cc2)c(O)cc1O (centres unmarked) [SDC-TRAP-0132, 3-(2-(4-(3-(2,4-dihydroxy-5-isopropylphenyl)-5-hydroxy-4H-1,2,4-triazol-4-yl)phenyl)-N-methylacetamido)propyl(2-(2,6-dioxopiperidin-3-yl)-1-oxoisoindolin-4-yl)carbamate] | > 5 µM |
| CCNC(=O)c1nnc(-c2cc(C(C)C)c(O)cc2O)n1-c1ccc(C(=O)N(C)CCOC(=O)Nc2cccc3c2CN(C2CCC(=O)NC2=O)C3=O)cc1 (centres unmarked) [SDC-TRAP-0133, 2-(4-(3-(2,4-dihydroxy-5-isopropylphenyl)-5-(ethylcarbamoyl)-4H-1,2,4-triazol-4-yl)-N-methylbenzamido)ethyl(2-(2,6-dioxopiperidin-3-yl)-1-oxoisoindolin-4-yl)carbamate] | > 10 µM |
| CCNC(=O)c1nnc(-c2cc(C(C)C)c(O)cc2O)n1-c1ccc(CN2CCC(C(=O)N3CCC(n4cc(-c5cnc(N)c(O[C@H](C)c6c(Cl)ccc(F)c6Cl)c5)cn4)CC3)CC2)cc1 [SDC-TRAP-0134, (R)-4-(4-((4-(4-(4-(6-amino-5-(1-(2,6-dichloro-3-fluorophenyl)ethoxy)pyridin-3-yl)-1H-pyrazol-1-yl)piperidine-1-carbonyl)piperidin-1-yl)methyl)phenyl)-5-(2,4-dihydroxy-5-isopropylphenyl)-N-ethyl-4H-1,2,4-triazole-3-carboxamide] | 0.077 µM |
| CCNC(=O)c1nnc(-c2cc(C(C)C)c(O)cc2O)n1-c1ccc(C(=O)N(C)CCCOC(=O)Nc2cccc3c2CN(C2CCC(=O)NC2=O)C3=O)cc1 (centres unmarked) [SDC-TRAP-0135, 3-(4-(3-(2,4-dihydroxy-5-isopropylphenyl)-5-(ethylcarbamoyl)-4H-1,2,4-triazol-4-yl)-N-methylbenzamido)propyl(2-(2,6-dioxopiperidin-3-yl)-1-oxoisoindolin-4-yl)carbamate] | 9.67 µM |
| CCNC(=O)c1nnc(-c2cc(C(C)C)c(O)cc2O)n1-c1ccc(C(=O)N2CCC(COC(=O)Nc3cccc4c3CN(C3CCC(=O)NC3=O)C4=O)CC2)cc1 (centres unmarked) [SDC-TRAP-0136, (1-(4-(3-(2,4-dihydroxy-5-isopropylphenyl)-5-(ethylcarbamoyl)-4H-1,2,4-triazol-4-yl)benzoyl)piperidin-4-yl)methyl (2-(2,6-dioxopiperidin-3-yl)-1-oxoisoindolin-4-yl)carbamate] | > 5 µM |
| CC(C)c1cc(-c2nnc(O)n2-c2ccc3c(ccn3CCC3CCN(C(=O)Cn4cc(F)c(=O)[nH]c4=O)CC3)c2)c(O)cc1O [SDC-TRAP-0137, 1-(2-(4-(2-(5-(3-(2,4-dihydroxy-5-isopropylphenyl)-5-hydroxy-4H-1,2,4-triazol-4-yl)-1H-indol-1-yl)ethyl)piperidin-1-yl)-2-oxoethyl)-5-fluoropyrimidine-2,4(1H,3H)-dione] | > 5 µM |
| CC(C)c1cc(-c2nnc(O)n2-c2ccc(N3CCN(C(=O)N4CCC(n5cc(-c6cnc(N)c(O[C@H](C)c7c(Cl)ccc(F)c7Cl)c6)cn5)CC4)CC3)cc2)c(O)cc1O [SDC-TRAP-0138, (R)-(4-(4-(6-amino-5-(1-(2,6-dichloro-3-fluorophenyl)ethoxy)pyridin-3-yl)-1H-pyrazol-1-yl)piperidin-1-yl)(4-(4-(3-(2,4-dihydroxy-5-isopropylphenyl)-5-hydroxy-4H-1,2,4-triazol-4-yl)phenyl)piperazin-1-yl)methanone] | 0.707 µM |
| CC(C)c1cc(-c2nnc(O)n2-c2ccc(CN3CCN(C(=O)O[C@H]4CC[C@@]5(C)C(=CC[C@@H]6[C@@H]5CC[C@]5(C)C(c7cccnc7)=CC[C@@H]65)C4)CC3)cc2)c(O)cc1O [SDC-TRAP-0150, (3S,8R,9S,10R,13S,14S)-10,13-dimethyl-17-(pyridin-3-yl)-2,3,4,7,8,9,10,11,12,13,14,15-dodecahydro-1H-cyclopenta[a]phenanthren-3-yl 4-(4-(3-(2,4-dihydroxy-5-isopropylphenyl)-5-hydroxy-4H-1,2,4-triazol-4-yl)benzyl) piperazine-1-carboxylate] | 1.41 µM |
| CC(C)c1cc(-c2nnc(O)n2-c2ccc3c(ccn3CCOCCNC(=O)O[C@H]3CC[C@@]4(C)C(=CC[C@@H]5[C@@H]4CC[C@]4(C)C(c6cccnc6)=CC[C@@H]54)C3)c2)c(O)cc1O [SDC-TRAP-0151, (3S,8R,9S,10R,13S,14S)-10,13-dimethyl-17-(pyridin-3-yl)-2,3,4,7,8,9,10,11,12,13,14,15-dodecahydro-1H-cyclopenta[a]phenanthren-3-yl (2-(2-(5-(3-(2,4-dihydroxy-5-isopropylphenyl)-5-hydroxy-4H-1,2,4-triazol-4-yl)-1H-indol-1-yl)ethoxy)ethyl)carbamate] | 1.19 µM |
| CC(C)c1cc(-c2nnc(O)n2-c2ccc(CC3CCN(C(=O)O[C@H]4CC[C@@]5(C)C(=CC[C@@H]6[C@@H]5CC[C@]5(C)C(c7cccnc7)=CC[C@@H]65)C4)CC3)cc2)c(O)cc1O [SDC-TRAP-0153, (3S,8R,9S,10R,13S,14S)-10,13-dimethyl-17-(pyridin-3-yl)-2,3,4,7,8,9,10,11,12,13,14,15-dodecahydro-1H-cyclopenta[a]phenanthren-3-yl 4-(4-(3-(2,4-dihydroxy-5-isopropylphenyl)-5-hydroxy-4H-1,2,4-triazol-4-yl)benzyl) piperidine-1-carboxylate] | 6.34 µM |

Second part, the compound after the results:

| IC50 | SMILES |
| --- | --- |
| 1 to 2 µM | CCNC(=O)c1nnc(-c2cc(C(C)C)c(O)cc2O)n1-c1ccc(C(=O)N(C)CC(=O)N2CCC(n3cc(-c4cnc(N)c(O[C@H](C)c5c(Cl)ccc(F)c5Cl)c4)cn3)CC2)cc1 [SDC-TRAP-0139, (R)-4-(4-((2-(4-(4-(6-amino-5-(1-(2,6-dichloro-3-fluorophenyl)ethoxy)pyridin-3-yl)-1H-pyrazol-1-yl)piperidin-1-yl)-2-oxoethyl)(methyl)carbamoyl)phenyl)-5-(2,4-dihydroxy-5-isopropylphenyl)-N-ethyl-4H-1,2,4-triazole-3-carboxamide] |
| > 5 µM | CCNC(=O)c1nnc(-c2cc(C(C)C)c(O)cc2O)n1-c1ccc(C(=O)N2CCC(CCOC(=O)Nc3cccc4c3CN(C3CCC(=O)NC3=O)C4=O)CC2)cc1 (centres unmarked) [SDC-TRAP-0140, 2-(1-(4-(3-(2,4-dihydroxy-5-isopropylphenyl)-5-(ethylcarbamoyl)-4H-1,2,4-triazol-4-yl)benzoyl)piperidin-4-yl)ethyl(2-(2,6-dioxopiperidin-3-yl)-1-oxoisoindolin-4-yl)carbamate] |
| 4.33 µM | CCNC(=O)c1nnc(-c2cc(C(C)C)c(O)cc2O)n1-c1ccc(C(=O)N(C)CC(=O)Nc2cccc3c2CN(C2CCC(=O)NC2=O)C3=O)cc1 (centres unmarked) [SDC-TRAP-0147, 5-(2,4-dihydroxy-5-isopropylphenyl)-4-(4-((2-((2-(2,6-dioxopiperidin-3-yl)-1-oxoisoindolin-4-yl)amino)-2-oxoethyl)(methyl)carbamoyl)phenyl)-N-ethyl-4H-1,2,4-triazole-3-carboxamide] |
| 1.69 µM | CCNC(=O)c1nnc(-c2cc(C(C)C)c(O)cc2O)n1-c1ccc(CN2CCC(C(=O)Nc3cccc4c3CN(C3CCC(=O)NC3=O)C4=O)CC2)cc1 (centres unmarked) [SDC-TRAP-0149, 1-(4-(3-(2,4-dihydroxy-5-isopropylphenyl)-5-(ethylcarbamoyl)-4H-1,2,4-triazol-4-yl)benzyl)-N-(2-(2,6-dioxopiperidin-3-yl)-1-oxoisoindolin-4-yl)piperidine-4-carboxamide] |
| 1.19 µM | CC(C)c1cc(-c2nnc(O)n2-c2ccc3c(c2)cc(CN2CCC(COC(=O)Nc4cccc5c4CN(C4CCC(=O)NC4=O)C5=O)CC2)n3C)c(O)cc1O (centres unmarked) [SDC-TRAP-0155, (1-((5-(3-(2,4-dihydroxy-5-isopropylphenyl)-5-hydroxy-4H-1,2,4-triazol-4-yl)-1-methyl-1H-indol-2-yl)methyl)piperidin-4-yl)methyl (2-(2,6-dioxopiperidin-3-yl)-1-oxoisoindolin-4-yl)carbamate] |
| 3.5 µM | CC(C)c1cc(-c2nnc(O)n2-c2ccc(N3CCN(C(=O)c4ccc(COC(=O)Nc5cccc6c5CN(C5CCC(=O)NC5=O)C6=O)cc4)CC3)cc2)c(O)cc1O (centres unmarked) [SDC-TRAP-0156, 4-(4-(4-(3-(2,4-Dihydroxy-5-isopropylphenyl)-5-hydroxy-4H-1,2,4-triazol-4-yl)phenyl)piperazine-1-carbonyl)benzyl (2-(2,6-dioxopiperidin-3-yl)-1-oxoisoindolin-4-yl)carbamate] |
| 0.696 µM | CC(C)c1cc(-c2nnc(O)n2-c2ccc(CN3CCN(C(=O)c4ccc(COC(=O)Nc5cccc6c5CN(C5CCC(=O)NC5=O)C6=O)cc4)CC3)c(F)c2)c(O)cc1O (centres unmarked) [SDC-TRAP-0157, 4-(4-(4-(3-(2,4-dihydroxy-5-isopropylphenyl)-5-hydroxy-4H-1,2,4-triazol-4-yl)-2-fluorobenzyl)piperazine-1-carbonyl)benzyl (2-(2,6-dioxopiperidin-3-yl)-1-oxoisoindolin-4-yl)carbamate] |
